These results are taken from patent publication US20220340629A1, “Myosin Derived Peptides and Related Compounds with Anticoagulant Activities” (THE SCRIPPS RESEARCH INSTITUTE, priority 0001, published 2022).

Where two headings read alike, the source gives them in different places. Non-standard residues stand in square brackets, D forms with d. Residues, ends and D or L forms follow the SMILES beside them. NMeF = CN[C@@H](Cc1ccccc1)C(=O)O; 3Pal = N[C@@H](Cc1cccnc1)C(=O)O; NMeN = CN[C@@H](CC(N)=O)C(=O)O; NMeS = CN[C@@H](CO)C(=O)O; Nle = CCCC[C@H](N)C(=O)O

Experiment [1] concerns the target skeletal muscle myosin-supported prothrombin activation by factors Xa and Va (Homo sapiens, UniProt P00742). As to the kind of experiment: Assay 1A: prothrombin activation by factor Xa/factor Va/myosin in purified system. The conditions noted are these: purified system. Format: biochemical, human factors Xa and Va; rabbit skeletal muscle myosin.
For experiment [2], the system named is thrombin generation in human platelet poor plasma with skeletal muscle myosin. As to the kind of experiment: Assay 2A: thrombin generation, recalcification of human platelet poor plasma + myosin. Format: biochemical. The conditions noted are these: human platelet poor plasma 30%, myosin 50 nM, CaCl2 10 mmol/L; read-out: 2A (recalcification +myosin). The procedure, abridged: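 Pooled normal human platelet-poor plasma (30%) preincubated 5 min at 37° C with 50 nM skeletal muscle myosin and peptide in DMSO. Coagulation triggered with 10 mmol/L CaCl2 plus fluorogenic Z-Gly-Gly-Arg-AMC; thrombin generation followed 25 min (ex 360/em 460 nm). IC50 = peptide concentration giving 50% inhibition of thrombin generation.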

The target of experiment [3] is phospholipid-supported prothrombin activation by factors Xa and Va (Homo sapiens, UniProt P00742). As to the kind of experiment: Assay 1C: phospholipid vesicle (PC/PS 80%/20%)-supported prothrombin activation. Format: biochemical.
Chain of phospholipid-supported prothrombin activation by factors Xa and Va (P00742 41-179 limits assumed): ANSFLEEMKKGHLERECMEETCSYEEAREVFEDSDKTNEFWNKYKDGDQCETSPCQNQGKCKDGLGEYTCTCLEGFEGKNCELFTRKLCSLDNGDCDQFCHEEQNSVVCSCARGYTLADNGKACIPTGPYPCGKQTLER
Chain of phospholipid-supported prothrombin activation by factors Xa and Va (P00742 235-488 limits assumed): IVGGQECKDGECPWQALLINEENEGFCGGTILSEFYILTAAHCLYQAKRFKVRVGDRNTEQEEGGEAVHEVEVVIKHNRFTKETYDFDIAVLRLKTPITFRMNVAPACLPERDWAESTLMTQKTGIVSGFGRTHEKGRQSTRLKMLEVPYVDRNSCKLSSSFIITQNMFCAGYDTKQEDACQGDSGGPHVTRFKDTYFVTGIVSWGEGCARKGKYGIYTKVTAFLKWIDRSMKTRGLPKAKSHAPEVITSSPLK
In experiment [4] the test system is skeletal muscle myosin-supported prothrombin activation by factors Xa and Va. As to the kind of experiment: Assay 1A: prothrombin activation by factor Xa/factor Va/myosin in purified system. The conditions noted are these: for IC50: dose-dependency assays, FIG. 2A, myosin 2 nM, read-out: IC50, inhibition of myosin-supported prothrombin activation; for inhibition of myosin-supported prothrombin activation at 5 μM: peptide 5 μM; for inhibition of myosin-supported prothrombin activation at 5 μM / inhibition of myosin-supported prothrombin activation at 100 μM: FIG. 1A; for inhibition of myosin-supported prothrombin activation at 100 μM: peptide 100 μM; for inhibition of myosin-supported prothrombin activation: dose-dependent studies, FIG. 4, TFP 0-100 μM, ELC peptides 0-300 μM. Format: biochemical, human factors Xa and Va; rabbit skeletal muscle myosin.

Experiment [5] concerns the target T1, prothrombin activation by factor Xa and factor Va (no myosin) (Homo sapiens, UniProt P00742).
T1 construct: the same reaction mixture of factor Xa, factor Va and prothrombin
Nature of the experiment: Assay 1B: prothrombin activation by factor Xa/factor Va, no myosin. Format: biochemical. The conditions noted are these: for inhibition of prothrombin activation in the absence of myosin: FIG. 4, peptide 0-300 μM.

Experiment [6] has as its system thrombin generation in human plasma. Nature of the experiment: Thrombin generation assay in pooled normal human plasma (Examples 3 and 4). Format: biochemical. The conditions noted are these: screened at 25 μM, FIG. 3A. The procedure:
Thrombin generation assay in pooled human plasma: The effect of synthetic peptides on thrombin generation in pooled normal human plasma (George King Bio-medical, Inc., Overland Park, KS) was tested as described (1,11). Briefly, normal human plasma (30 μl) was mixed with CTI, followed by the addition of peptide. Then, tissue factor (TF) (Innovin) (0.5[…] pM final) containing 30 mM Ca^++ in TBSA with fluorogenic thrombin substrate solution (I-1140) (Bachem Americas, Inc., Torrance, Calif.) were added to the plasma to initiate coagulation activation. The first derivative of the time course data for substrate hydrolysis yielded the thrombin generation curve, allowing measurement of thrombin generation during the initiation, propagation and termination phases of thrombin generation and the value for peak thrombin generated.

Where [7] appears, read: skeletal muscle myosin, factor Va 5 nM, factor Xa 0.2 nM, prothrombin 0.75 μM, 10 min, read-out: 1A (+myosin).
Where [8] appears, read: PC/PS vesicles 4 μM, read-out: IC50, phospholipid vesicles containing 20% phosphatidylserine-supported prothrombin activation.

Chain of skeletal muscle myosin-supported prothrombin activation by factors Xa and Va (Homo sapiens, UniProt P00742) (P00742 41-179): as the sequence (P00742 41-179 limits assumed) above
Chain of skeletal muscle myosin-supported prothrombin activation by factors Xa and Va (Homo sapiens, UniProt P00742) (P00742 235-488): as the sequence (P00742 235-488 limits assumed) above
Chain of skeletal muscle myosin-supported prothrombin activation by factors Xa and Va (Homo sapiens, UniProt P00742) (P12259 29-737 partner): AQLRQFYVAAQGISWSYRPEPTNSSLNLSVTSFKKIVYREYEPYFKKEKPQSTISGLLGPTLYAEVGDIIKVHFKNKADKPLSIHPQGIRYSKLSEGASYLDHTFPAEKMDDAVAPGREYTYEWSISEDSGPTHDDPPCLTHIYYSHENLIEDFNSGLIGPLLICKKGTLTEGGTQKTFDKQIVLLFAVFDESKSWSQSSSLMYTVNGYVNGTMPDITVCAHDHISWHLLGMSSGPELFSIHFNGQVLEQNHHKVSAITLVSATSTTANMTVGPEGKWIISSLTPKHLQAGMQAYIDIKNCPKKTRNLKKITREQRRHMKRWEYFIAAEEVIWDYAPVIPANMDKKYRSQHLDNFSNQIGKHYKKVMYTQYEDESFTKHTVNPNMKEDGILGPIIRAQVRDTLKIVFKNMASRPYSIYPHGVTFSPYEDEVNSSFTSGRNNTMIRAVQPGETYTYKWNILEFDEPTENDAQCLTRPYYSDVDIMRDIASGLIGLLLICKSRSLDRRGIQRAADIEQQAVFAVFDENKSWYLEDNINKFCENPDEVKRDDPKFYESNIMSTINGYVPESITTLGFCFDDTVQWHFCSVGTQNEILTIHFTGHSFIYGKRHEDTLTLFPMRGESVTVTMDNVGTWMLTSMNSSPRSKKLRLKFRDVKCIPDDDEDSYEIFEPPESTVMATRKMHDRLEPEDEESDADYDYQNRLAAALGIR
Chain of skeletal muscle myosin-supported prothrombin activation by factors Xa and Va (Homo sapiens, UniProt P00742) (P12259 1574-2224 partner): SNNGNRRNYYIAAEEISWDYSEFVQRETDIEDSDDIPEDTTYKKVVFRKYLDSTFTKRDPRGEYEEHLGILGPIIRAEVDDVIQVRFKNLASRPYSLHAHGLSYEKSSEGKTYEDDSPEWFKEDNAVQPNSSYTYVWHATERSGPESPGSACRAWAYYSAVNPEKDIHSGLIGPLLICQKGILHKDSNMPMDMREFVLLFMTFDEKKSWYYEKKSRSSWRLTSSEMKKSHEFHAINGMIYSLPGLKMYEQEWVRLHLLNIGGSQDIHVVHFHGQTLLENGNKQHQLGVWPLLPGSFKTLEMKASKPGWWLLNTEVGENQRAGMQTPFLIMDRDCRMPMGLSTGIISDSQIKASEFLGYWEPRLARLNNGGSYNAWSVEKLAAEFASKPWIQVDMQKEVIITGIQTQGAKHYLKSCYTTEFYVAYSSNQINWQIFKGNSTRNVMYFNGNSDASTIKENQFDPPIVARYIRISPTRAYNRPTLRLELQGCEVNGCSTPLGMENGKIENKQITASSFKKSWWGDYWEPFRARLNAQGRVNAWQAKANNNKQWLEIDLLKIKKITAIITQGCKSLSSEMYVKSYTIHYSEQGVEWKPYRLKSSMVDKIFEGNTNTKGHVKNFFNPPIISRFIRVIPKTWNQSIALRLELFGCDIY
T1 sequence (P00742 41-179 limits assumed): as the sequence (P00742 41-179 limits assumed) above
T1 sequence (P00742 235-488 limits assumed): as the sequence (P00742 235-488 limits assumed) above

For `CCCC[C@H](NC(=O)[C@H](Cc1c[nH]c2ccccc12)NC(=O)[C@@H]1CCCN1C(=O)[C@H](Cc1c[nH]c2ccccc12)NC(=O)[C@H](Cc1c[nH]cn1)NC(=O)[C@H](CCCCN)NC(=O)[C@@H](NC(=O)[C@H](CC(N)=O)NC(=O)[C@H](CCCC)NC(=O)[C@H](Cc1ccccc1)NC(=O)[C@H](CO)NC(=O)[C@H](CCCNC(=N)N)NC(=O)[C@@H](NC(=O)[C@H](CC(N)=O)NC(=O)[C@H](Cc1ccc(O)cc1)NC(=O)[C@H](CCC(N)=O)NC(=O)[C@@H](NC(=O)[C@H](CS)NC(=O)[C@H](Cc1cccnc1)NC(=O)[C@@H](NC(=O)[C@H](C)N)[C@@H](C)CC)[C@@H](C)CC)[C@@H](C)CC)C(C)C)C(=O)N[C@@H](CCCCN)C(N)=O` [HC178] (H-AI[3Pal]CIQYNIRSF[Nle]NVKHWPW[Nle]K-NH2; N-terminus assumed), the IC50 was 1700 nM in experiment [1] (setting [7]) and 13 µM in experiment [2].
As for `CC[C@H](C)[C@H](NC(=O)[C@H](C)NC(=O)[C@@H](N)CCC(=O)O)C(=O)N[C@@H](Cc1ccccc1)C(=O)N[C@@H](CS)C(=O)N[C@H](C(=O)N[C@@H](CCC(N)=O)C(=O)N[C@@H](Cc1ccc(O)cc1)C(=O)N[C@@H](CC(N)=O)C(=O)N[C@H](C(=O)N[C@@H](CCCNC(=N)N)C(=O)N[C@@H](CO)C(=O)N[C@@H](Cc1ccccc1)C(=O)N[C@@H](CCSC)C(=O)N[C@@H](CC(N)=O)C(=O)N[C@H](C(=O)N[C@@H](CCCCN)C(=O)N[C@@H](Cc1c[nH]cn1)C(=O)N[C@@H](Cc1c[nH]c2ccccc12)C(=O)N1CCC[C@H]1C(=O)N[C@@H](Cc1c[nH]c2ccccc12)C(=O)N[C@@H](CCSC)C(=O)N[C@@H](CCCCN)C(=O)N[C@@H](CC(C)C)C(=O)N[C@@H](Cc1ccccc1)C(=O)N[C@@H](Cc1ccccc1)C(=O)N[C@@H](CCCCN)C(=O)N[C@H](C(=O)N[C@@H](CCCCN)C(=O)N1CCC[C@H]1C(=O)N[C@@H](CC(C)C)C(=O)N[C@@H](CC(C)C)C(=O)N[C@@H](CCCCN)C(=O)N[C@@H](CO)C(=O)N[C@@H](C)C(=O)N[C@@H](CCC(=O)O)C(=O)N[C@H](C(=O)N[C@@H](CCC(=O)O)C(=O)N[C@@H](CCCCN)C(=O)N[C@@H](CCC(=O)O)C(N)=O)[C@@H](C)O)[C@@H](C)CC)C(C)C)[C@@H](C)CC)[C@@H](C)CC` [HC815-854] (H-EAIFCIQYNIRSFMNVKHWPWMKLFFKIKPLLKSAETEKE-NH2), the IC50 in experiment [3] (setting [8]) came out at 104 µM; in experiment [3] (purified system, phospholipid vesicles, read-out: 1C (+phospholipid)), 7.5 µM; in experiment [4], 2.3 µM; in experiment [1] (prothrombin activation with myosin, read-out: 1A (+ myosin) IC50), 1990 nM; in experiment [5] (purified system, no myosin), 10.8 µM. The “inhibition of myosin-supported prothrombin activation at 5 μM” value (“inhibition … at 5 μM” for short) in experiment [4] is listed as “inhibitory, to varying degrees”. For the same compound, the “inhibition of myosin-supported prothrombin activation at 100 μM” value (shortened to “inhibition … at 100 μM”) in experiment [4] is listed as “inhibited”. Moreover, the “inhibition of thrombin generation in human plasma” value in experiment [6] is reported as “significantly inhibited”.
“YEDFVEGLRVFDKEGN [ELC129-144, Ac-YEDFVEGLRVFDKEGN-NH2]”: in experiment [4], the “inhibition of myosin-supported prothrombin activation” value is “inhibited”. The “inhibition of prothrombin activation in the absence of myosin” value in experiment [5] was “did not”.
As for `CCCC[C@H](NC(=O)[C@H](Cc1c[nH]c2ccccc12)NC(=O)[C@@H]1CCCN1C(=O)[C@H](Cc1c[nH]c2ccccc12)NC(=O)[C@H](Cc1c[nH]cn1)NC(=O)[C@H](CCCCN)NC(=O)[C@@H](NC(=O)[C@H](CC(N)=O)N(C)C(=O)[C@H](CCCC)NC(=O)[C@H](Cc1ccccc1)NC(=O)[C@H](CO)NC(=O)[C@H](CCCNC(=N)N)NC(=O)[C@@H](NC(=O)[C@H](CC(N)=O)NC(=O)[C@H](Cc1ccc(O)cc1)NC(=O)[C@H](CCC(N)=O)NC(=O)[C@@H](NC(=O)[C@H](CS)NC(=O)[C@H](Cc1ccccc1)NC(=O)[C@@H](NC(=O)[C@H](C)N)[C@@H](C)CC)[C@@H](C)CC)[C@@H](C)CC)C(C)C)C(=O)N[C@@H](CCCCN)C(N)=O` [HC199] (H-AIFCIQYNIRSF[Nle][NMeN]VKHWPW[Nle]K-NH2), the IC50 is 460 nM in experiment [1] (setting [7]) and 5.8 to 10.2 µM in experiment [2].
In the case of `CCCC[C@H](NC(=O)[C@H](Cc1c[nH]c2ccccc12)NC(=O)[C@@H]1CCCN1C(=O)[C@H](Cc1c[nH]c2ccccc12)NC(=O)[C@H](Cc1c[nH]cn1)NC(=O)[C@H](CCCCN)NC(=O)[C@@H](NC(=O)[C@H](CC(N)=O)NC(=O)[C@H](CCCC)NC(=O)[C@H](Cc1ccccc1)NC(=O)[C@H](CO)NC(=O)[C@H](CCCNC(=N)N)NC(=O)[C@@H](NC(=O)[C@H](CC(N)=O)NC(=O)[C@H](Cc1ccc(O)cc1)NC(=O)[C@H](CCC(N)=O)NC(=O)[C@@H](NC(=O)[C@H](CO)NC(=O)[C@H](Cc1ccccc1)NC(=O)[C@@H](NC(=O)[C@H](C)N)[C@@H](C)CC)[C@@H](C)CC)[C@@H](C)CC)C(C)C)C(=O)N[C@@H](CCCCN)C(N)=O` [HC188] (H-AIFSIQYNIRSF[Nle]NVKHWPW[Nle]K-NH2; N-terminus assumed), the IC50 in experiment [1] (setting [7]) was found to be 590 nM; in experiment [2], 10 µM.
On to `CC[C@H](C)[C@H](NC(=O)[C@H](CC(C)C)NC(=O)[C@H](CCC(N)=O)NC(=O)[C@H](C)NC(=O)[C@H](CC(C)C)NC(=O)[C@H](CCCCN)NC(=O)[C@H](CC(=O)O)NC(=O)[C@H](CC(=O)O)NC(=O)[C@H](CCCNC(=N)N)NC(=O)[C@H](CCSC)NC(=O)[C@@H](N)CCC(=O)O)C(=O)N[C@H](C(=O)N[C@@H](CCCNC(=N)N)C(=O)N[C@H](C(=O)N[C@@H](CCC(N)=O)C(=O)N[C@@H](C)C(=O)N[C@@H](CCCNC(=N)N)C(=O)N[C@@H](CS)C(=O)N[C@@H](CCCNC(=N)N)C(=O)NCC(=O)N[C@@H](Cc1ccccc1)C(=O)N[C@@H](CC(C)C)C(=O)N[C@@H](C)C(=O)N[C@@H](CCCNC(=N)N)C(=O)N[C@H](C(=O)N[C@@H](CCC(=O)O)C(=O)N[C@@H](Cc1ccc(O)cc1)C(=O)N[C@@H](CCC(N)=O)C(=O)N[C@@H](CCCNC(=N)N)C(=O)N[C@@H](CCSC)C(N)=O)C(C)C)[C@@H](C)O)[C@@H](C)O` [HC781-810] (H-EMRDDKLAQLITRTQARCRGFLARVEYQRM-NH2), for which the IC50 in experiment [3] (setting [8]) was found to be 7.5 µM. Further, in experiment [4], the IC50 was 64 µM; the “inhibition … at 5 μM” value was “inhibitory, to varying degrees”; the “inhibition … at 100 μM” value is “inhibited”.
Take `CCCC[C@H](NC(=O)[C@H](Cc1c[nH]c2ccccc12)NC(=O)[C@@H]1CCCN1C(=O)[C@H](Cc1c[nH]c2ccccc12)NC(=O)[C@H](Cc1c[nH]cn1)NC(=O)[C@H](CCCCN)NC(=O)[C@@H](NC(=O)[C@H](CC(N)=O)NC(=O)[C@H](CCCC)NC(=O)[C@H](Cc1ccccc1)NC(=O)[C@H](CO)NC(=O)[C@H](CCCNC(=N)N)NC(=O)[C@@H](NC(=O)[C@H](CC(N)=O)NC(=O)[C@H](Cc1ccc(O)cc1)NC(=O)[C@H](CCC(N)=O)NC(=O)[C@@H](NC(=O)[C@H](CO)N(C)C(=O)[C@H](Cc1ccccc1)NC(=O)[C@@H](NC(=O)[C@H](C)N)[C@@H](C)CC)[C@@H](C)CC)[C@@H](C)CC)C(C)C)C(=O)N[C@@H](CCCCN)C(N)=O` [HC189] (H-AIF[NMeS]IQYNIRSF[Nle]NVKHWPW[Nle]K-NH2; N-terminus assumed): the IC50 came to 1500 nM in experiment [1] (setting [7]) and 17 µM in experiment [2].
Turning to “QEEIKNMWAAFPPDVGGNVDYKNICYVITH [RLC133-162]”, the “inhibitory effects on phospholipid-supported prothrombin activation” value in experiment [3] (compared with effects on myosin-supported prothrombin activation) was “not apparent”. Also, in experiment [4], the IC50 is 26 µM; the “inhibition … at 5 μM” value is reported as “inhibitory, to varying degrees”; the “inhibition … at 100 μM” value was “inhibited”.
Take RVFDKEGNGTVMGAELRHVL [ELC138-157]: in experiment [4], the “inhibition of myosin-supported prothrombin activation” value is “inhibited”. Also, in experiment [5], the “inhibition of prothrombin activation in the absence of myosin” value is “inhibited”.
Regarding `CCCC[C@H](NC(=O)[C@H](Cc1c[nH]c2ccccc12)NC(=O)[C@@H]1CCCN1C(=O)[C@H](Cc1c[nH]c2ccccc12)NC(=O)[C@H](Cc1c[nH]cn1)NC(=O)[C@H](CCCCN)NC(=O)[C@@H](NC(=O)[C@H](CC(N)=O)NC(=O)[C@H](CCCC)NC(=O)[C@H](Cc1ccccc1)N(C)C(=O)[C@H](CO)NC(=O)[C@H](CCCNC(=N)N)NC(=O)[C@@H](NC(=O)[C@H](CC(N)=O)NC(=O)[C@H](Cc1ccc(O)cc1)NC(=O)[C@H](CCC(N)=O)NC(=O)[C@@H](NC(=O)[C@H](CS)NC(=O)[C@H](Cc1ccccc1)NC(=O)[C@@H](NC(=O)[C@H](C)N)[C@@H](C)CC)[C@@H](C)CC)[C@@H](C)CC)C(C)C)C(=O)N[C@@H](CCCCN)C(N)=O` [HC198] (H-AIFCIQYNIRS[NMeF][Nle]NVKHWPW[Nle]K-NH2; N-terminus assumed), the IC50 was determined as 870 nM in experiment [1] (setting [7]) and 16 µM in experiment [2].
